Laboratory results reported in PubChem BioAssay (NCI).
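48-hour exposure; five concentrations; linearly interpolated endpoints. TGI marks complete inhibition of growth.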

Test system: SN12K1 renal
Assay: growth of human tumour cells (NCI), 48 h

Compound	TGI [nM]
CCc1ccccc1N1CCN(C(=O)c2cc(OC)c(OC)c(OC)c2)CC1	194
COC(C(=O)C(O)C(C)O)C1Cc2cc3cc(OC4CC(OC(C)=O)C(OC5CC(O)C(OC)C(C)O5)C(C)O4)cc(O)c3c(O)c2C(=O)C1OC1CC(OC2CC(OC3CC(C)(O)C(OC(=O)C(C)C)C(C)O3)C(O)C(C)O2)C(O)C(C)O1 (configuration not stated)	12.6
